Reference: patent US9956201B2, “Compositions comprising bioreversible derivatives of hydroxy N-substituted-2-aminotetralins, and related dosage forms” (Spriaso LLC, priority 2014, dated 2018)

Assays:
[1] = cited from earlier work
[2] = Apparent lipophilicity log D at pH 7.4 (octanol / pH 7.4 surfactant free buffer); assay type: physicochemical
Description: The log DpH=7.4 value is a log of the distribution efficiency (ratio of concentrations of the disclosed bioreversible derivatives in octanol solvent to a pH 7.4 aqueous surfactant free buffer media).
TABLE 5 summarized the intrinsic lipophilicity and apparent lipophilicity of hydroxy N-substituted-2-aminotetralins in comparison with those of some examples of the corresponding bioreversible derivatives according to the disclosure.

[3] = no method; cited from earlier work
[4] = Pharmacokinetics of dosage forms at varied doses of Composition 1c-10 containing caprate ester A10; assay type: in vivo; settings: serum rotigotine, human, oral, Composition 1c-10 with A10
Method: Serial blood samples were drawn at predetermined time (e.g., t=0, 12, 24, etc.) and analyzed for rotigotine concentration using a validated HPLC-MS/MS analytical method. The rotigotine Cmax, ratio of rotiogtine peak levels to rotigotine equivalent, Cmax/mg, rotiogotine Cavgt1-t2, rotigotine steady state maximum concentration, Css-max, rotigotine AUCt1-t2 and ratio of rotigotine area under the curve to rotigotine equivalent dose in mg, AUCt1-t2/mg, were calculated in the serum of the subjects. Pharmacokinetic and statistical analyses were performed on the data obtained from the subjects, the pharmacokinetic parameters were defined as follows:
[…] Serial blood samples were drawn for the human subjects at predetermined time (e.g., t=0, 12, 24, etc.) and analyzed to determine pharmacokinetic parameters in the serum of the subjects.

[5] = dose 0.1 mg as rotigotine equivalent
[6] = dose 500 mg as rotigotine equivalent

SMILES: CCCN(CCc1cccs1)[C@H]1CCc2c(O)cccc2C1 [Compound A1, (S)-6-[propyl(2-thiophen-2-ylethyl)amino]-5,6,7,8-tetrahydronaphthalen-1-ol]
- activity upon oral administration ([1]; preclinical data): zero to limited activity
- Apparent Lipophilicity logD7.4 [2]: 1-1.9

SMILES: CCCCCCCCCCCCCCCC(=O)Oc1cccc2c1CCC(NCCC)C2 (stereo not drawn) [Compound B5]
- Apparent Lipophilicity logD7.4 [2]: 6.5-7.5

SMILES: CCCN(CCC)C1CCc2ccc(O)cc2C1 (stereo not drawn) [Compound C2, 7-hydroxy-N,N-dipropyl-2-aminotetralin]
- pKa [3]: about 10.54

SMILES: CCCCCCCCCC(=O)Oc1cccc2c1CCC(N(CCC)CCc1cccs1)C2 (stereo not drawn) [Compound A10]
- Mean AUC/mg [4, 5]: <1.25 × 10^−9 hr..^−1
- Mean Cmax/mg [4, 5]: <1e-10 mL⁻¹
- Mean AUC/mg [4, 6]: >188 × 10^−6 hr..^−1
- Mean Cmax/mg [4, 6]: >1.2e-05 mL⁻¹
- Apparent Lipophilicity logD7.4 [2]: >4

SMILES: CCCN(CCC)C1CCc2cccc(O)c2C1 (stereo not drawn) [Compound C1, 8-hydroxy-N,N-dipropyl-2-aminotetralin]
- pKa [3]: about 10.54

SMILES: CCCCCCCCCCCC(=O)Oc1cccc2c1CC(N(CCC)CCC)CC2 (stereo not drawn) [Compound C7, Laurate (C12) Ester of 8-OH-DPAT]
- Apparent Lipophilicity logD7.4 [2]: 6.5-7.5

SMILES: CCCN[C@H]1CCc2c(O)cccc2C1 [Compound B1, (6S)-(−)-5-hydroxy-N-propyl-2-aminotetralin]
- Apparent Lipophilicity logD7.4 [2]: −0.5
- pKa [3]: about 10.6

SMILES: CCCN(CCc1cccs1)[C@H]1CCc2c(O)cccc2C1 [Compound N-0923]
- bioavailability after oral administration ([1]; animal model): about 0.5%

SMILES: CCCN(CCC)C1CCc2c(O)cccc2C1 (stereo not drawn) [Compound C3, 5-hydroxy-N,N-dipropyl-2-aminotetralin]
- pKa [3]: about 10.5
